Laboratory results reported in patent US7566712B2, “Biaryl piperazinyl-pyridine analogues” (Neurogen Corporation, priority 2003, dated 2009).

Biological target: T1, human capsaicin receptor (Homo sapiens, UniProt Q8NER1)
T1 construct: pBK-CMV expression construct encoding the full length human capsaicin receptor; expressed in transfected cells
Assay: Calcium mobilization assay, determination of antagonist activity (Example 6)
Assay type: cell-based
Settings: Table II; IC50 determined as described in Example 6
Outline: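 Antagonism measured as inhibition of capsaicin-evoked (final concentration = EC50, from an 8-point 1 nM–3 μM curve) Fluo-3 calcium signal in stable hVR1-HEK293 cells. Test compounds at 1–5 μM final, 0.5–6 h dark preincubation at room temperature. IC50 = concentration giving 50% reduction versus agonist-only response.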

T1 sequence (Q8NER1 whole entry): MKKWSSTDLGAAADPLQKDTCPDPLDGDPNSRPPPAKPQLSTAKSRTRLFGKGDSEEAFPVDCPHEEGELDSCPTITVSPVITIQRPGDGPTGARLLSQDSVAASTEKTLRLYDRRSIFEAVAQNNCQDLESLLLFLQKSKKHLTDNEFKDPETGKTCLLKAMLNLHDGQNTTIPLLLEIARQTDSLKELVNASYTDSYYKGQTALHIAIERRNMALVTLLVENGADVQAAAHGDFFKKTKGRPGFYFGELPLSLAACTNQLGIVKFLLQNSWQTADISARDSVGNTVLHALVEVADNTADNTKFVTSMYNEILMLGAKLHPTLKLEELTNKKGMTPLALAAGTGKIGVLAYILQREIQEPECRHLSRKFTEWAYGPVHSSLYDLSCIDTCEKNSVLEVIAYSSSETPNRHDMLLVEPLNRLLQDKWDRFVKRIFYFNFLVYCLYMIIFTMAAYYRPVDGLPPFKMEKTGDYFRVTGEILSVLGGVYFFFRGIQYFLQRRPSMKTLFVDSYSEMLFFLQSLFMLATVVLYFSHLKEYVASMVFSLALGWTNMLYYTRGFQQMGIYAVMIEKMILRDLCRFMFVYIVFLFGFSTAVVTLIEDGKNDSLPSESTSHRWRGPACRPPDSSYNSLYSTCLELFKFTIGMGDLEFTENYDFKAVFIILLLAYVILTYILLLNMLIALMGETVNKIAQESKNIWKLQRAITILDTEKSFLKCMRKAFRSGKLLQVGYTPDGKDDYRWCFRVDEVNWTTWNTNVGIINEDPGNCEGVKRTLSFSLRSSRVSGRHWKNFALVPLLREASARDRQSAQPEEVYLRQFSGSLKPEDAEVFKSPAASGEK

IC50, ≤ 1000 nM:
Cc1cccnc1N1CCN(c2cc(-c3ccc(OC(F)(F)F)cc3)nc(N3CCOCC3)n2)[C@H](C)C1 [Example 527, 4{4[(2R)-2-methyl-4-(3-methylpyridin-2-yl)piperazin-1-yl]-6-[4-(trifluoromethoxy)phenyl]pyrimidin-2-yl}morpholine]
C[C@@H]1CN(c2ncccc2C(F)(F)F)CCN1c1cc(-c2ccc(OC(F)(F)F)cc2)nc(N2CCOCC2)n1 [Example 528, 4-{4-{(2R)-2-methyl-4-(3-(trifluoromethyl)pyridin-2-yl]piperazin-1-yl}-6-[4-(trifluoromethoxy)phenyl]pyrimidin-2-yl}morpholine]
CCOc1cccc(-c2cc(N3CCN(c4ncccc4C)C[C@H]3C)nc(N3CCOCC3)n2)c1 [Example 529, 4-{4-(3-ethoxyphenyl)-6-[(2R)-2-methyl-4-(3-methylpyridin-2-yl)piperazin-1-yl]pyrimidin-2-yl}morpholine]
CCOc1cccc(-c2cc(N3CCN(c4ncccc4C(F)(F)F)C[C@H]3C)nc(N3CCOCC3)n2)c1 [Example 530, 4-(4-(3-ethoxyphenyl)-6-{(2R)-2-methyl-4-[3-(trifluoromethyl)pyridin-2-yl]piperazin-1-yl}pyrimidin-2-yl)morpholine]
CCOc1cccc(-c2cc(N3CCN(c4ncccc4Cl)C[C@H]3C)nc(N3CCOCC3)n2)c1 [Example 531, 4-[4-[(2R)-4-(3-chloropyridin-2-yl)-2-methylpiperazin-1-yl]-6-(3-ethoxyphenyl)pyrimidin-2-yl]morpholine]
C[C@@H]1CN(c2ncccc2C#N)CCN1c1cc(-c2cccc(OC(F)(F)F)c2)nc(N2CCOCC2)n1 [Example 532, 2-((3R)-3-methyl-4-{2-morpholin-4-yl-6-[3-(trifluoromethoxy)phenyl]pyrimidin-4-yl}piperazin-1-yl)nicotinonitrile]
Cc1cccnc1N1CCN(c2cc(-c3cccc(OC(F)(F)F)c3)nc(N3CCOCC3)n2)[C@H](C)C1 [Example 533, 4-{4-[(2R)-2-methyl-4-(3-methylpyridin-2-yl)piperazin-1-yl]-6-[3-(trifluoromethoxy)phenyl]pyrimidin-2-yl}morpholine]
C[C@@H]1CN(c2ncccc2C(F)(F)F)CCN1c1cc(-c2cccc(OC(F)(F)F)c2)nc(N2CCOCC2)n1 [Example 534, 4-{4-{(2R)-2-methyl-4-[3-(trifluoromethyl)pyridin-2-yl]piperazin-1-yl}-6-[3-(trifluoromethoxy)phenyl]pyrimidin-2-yl}morpholine]
C[C@@H]1CN(c2ncccc2Cl)CCN1c1cc(-c2cccc(OC(F)(F)F)c2)nc(N2CCOCC2)n1 [Example 535, 4-{4-[(2R)-4-(3-chloropyridin-2-yl)-2-methylpiperazin-1-yl]-6-[3-(trifluoromethoxy)phenyl]pyrimidin-2-yl}morpholine]
CSc1cccc(-c2cc(N3CCN(c4ncccc4C#N)C[C@H]3C)nc(N3CCOCC3)n2)c1 [Example 536, 2-((3R)-3-methyl-4-{6-[3-(methylthio)phenyl]-2-morpholin-4-ylpyrimidin-4-yl}piperazin-1-yl)nicotinonitrile]
CSc1cccc(-c2cc(N3CCN(c4ncccc4C)C[C@H]3C)nc(N3CCOCC3)n2)c1 [Example 537, 4-{4-[(2R)-2-methyl-4-(3-methylpyridin-2-yl)piperazin-1-yl]-6-[3-(methylthio)phenyl]pyrimidin-2-yl}morpholine]
CSc1cccc(-c2cc(N3CCN(c4ncccc4C(F)(F)F)C[C@H]3C)nc(N3CCOCC3)n2)c1 [Example 538, 4-(4-[3-(methylthio)phenyl]-6-{(2R)-2-methyl-4-[3-(trifluoromethyl)pyridin-2-yl]piperazin-1-yl}pyrimidin-2-yl)morpholine]
CSc1cccc(-c2cc(N3CCN(c4ncccc4Cl)C[C@H]3C)nc(N3CCOCC3)n2)c1 [Example 539, 4-{4-[(2R)-4-(3-chloropyridin-2-yl)-2-methylpiperazin-1-yl]-6-[3-(methylthio)phenyl]pyrimidin-2-yl}morpholine]
COc1ccc(-c2cc(N3CCN(c4ncccc4C)C[C@H]3C)nc(N3CCOCC3)n2)cc1F [Example 540, 4-{4-(3-fluoro-4-methoxyphenyl)-6-[(2R)-2-methyl-4-(3-methylpyridin-2-yl)piperazin-1-yl]pyrimidin-2-yl}morpholine]
COc1ccc(-c2cc(N3CCN(c4ncccc4C(F)(F)F)C[C@H]3C)nc(N3CCOCC3)n2)cc1F [Example 541, 4-(4-(3-fluoro-4-methoxyphenyi)-6-{(2R)-2-methyl-4-[3-(trifluoromethyl)pyridin-2-yl]piperazin-1-yl}pyrimidin-2-yl)morpholine]
COc1ccc(-c2cc(N3CCN(c4ncccc4Cl)C[C@H]3C)nc(N3CCOCC3)n2)cc1F [Example 542, 4-[4-[(2R)-4-(3-chloropyridin-2-yl)-2-methylpiperazin-1-yl]-6-(3-fluoro-4-methoxyphenyl)pyrimidin-2-yl]morpholine]
Cc1cccnc1N1CCN(c2cc(-c3cccc(OC(C)C)c3)nc(N3CCOCC3)n2)[C@H](C)C1 [Example 543, 4{4-(3-isopropoxyphenyl)-6-[(2R)-2-methyl-4-(3-methylpyridin-2-yl)piperazin-1-yl]pyrimidin-2-yl}morpholine]
CC(C)Oc1cccc(-c2cc(N3CCN(c4ncccc4Cl)C[C@H]3C)nc(N3CCOCC3)n2)c1 [Example 544, 4-[4-[(2R)-4-(3 chloropyridin-2-yl)-2-methylpiperazin-1-yl]-6-(3-isopropoxyphenyl)pyrimidin-2-yl]morpholine]
Fc1ccc(-c2cc(N3CCN(c4ncccc4C(F)(F)F)CC3)nc(O[C@H]3CCOC3)n2)cc1Cl [Example 545, 4-(3-chloro-4-fluorophenyl)-2-[(3S)-tetrahydrofuran-3-yloxy]-6-{4-[3-(trifluoromethyl)pyridin-2-yl]piperazin-1-yl}pyrimidine]
Fc1ccc(-c2cc(N3CCN(c4ncccc4C(F)(F)F)CC3)nc(N3CCNCC3)n2)cc1Cl [Example 546, 4-(3-chloro-4-fluorophenyl)-2-piperazin-1-yl-6-{4-[3-(trifluoromethyl)pyridin-2-yl]piperazin-1-yl}pyrimidine]
CCCN1CCN(c2nc(-c3ccc(F)c(Cl)c3)cc(N3CCN(c4ncccc4C(F)(F)F)CC3)n2)CC1 [Example 547, 4-(3-chloro-4-fluorophenyl)-2-(4-propylpiperazin-1-yl)-6-{4-[3-(trifluoromethyl)pyridin-2-yl]piperazin-1-yl}pyrimidine]
COC(CN(C)c1nc(-c2ccc(F)c(Cl)c2)cc(N2CCN(c3ncccc3C(F)(F)F)CC2)n1)OC [Example 548, 4-(3-chloro-4-fluorophenyl)-N-(2,2-dimethoxyethyl)-N-methyl-6-{4-[3-(trifluoromethyl)pyridin-2-yl]piperazin-1-yl}pyrimidin-2-amine]
CN(CCO)c1nc(-c2ccc(F)c(Cl)c2)cc(N2CCN(c3ncccc3C(F)(F)F)CC2)n1 [Example 549, 2-[(4-(3-chloro-4-fluorophenyl)-6-{4-[3-(trifluoromethyl)pyridin-2-yl]piperazin-1-yl}pyrimidin-2-yl)(methyl)amino]ethanol]
COC[C@@H]1CCCN1c1nc(-c2ccc(F)c(Cl)c2)cc(N2CCN(c3ncccc3C(F)(F)F)CC2)n1 [Example 550, 4-(3-chloro-4-fluorophenyl)-2-[(2S)-2-(methoxymethyl)pyrrolidin-1-yl]-6-{4-[3-(trifluoromethyl)pyridin-2-yl]piperazin-1-yl}pyrimidine]
O=C(O)[C@@H]1CCCN1c1nc(-c2ccc(F)c(Cl)c2)cc(N2CCN(c3ncccc3C(F)(F)F)CC2)n1 [Example 552, 1-(4-(3-chloro-4-fluorophenyl)-6-{4-[3-(trifluoromethyl)pyridin-2-yl]piperazin-1-yl}pyrimidin-2-yl)-L-proline]
Fc1ccc(-c2cc(N3CCN(c4ncccc4C(F)(F)F)CC3)nc(OCC3CC3)n2)cc1Cl [Example 553, 4-(3-chloro-4-fluorophenyl)-2-(cyclopropylmethoxy)-6-{4-[3-(trifluoromethyl)pyridin-2-yl]piperazin-1-yl}pyrimidine]
COCCOc1nc(-c2ccc(F)c(Cl)c2)cc(N2CCN(c3ncccc3C(F)(F)F)CC2)n1 [Example 554, 4-(3-chloro-4-fluorophenyl)-2-(2-methoxyethoxy)-6-{4-[3-(trifluoromethyl)pyridin-2-yl]piperazin-1-yl}pyrimidine]
COCCCOc1nc(-c2ccc(F)c(Cl)c2)cc(N2CCN(c3ncccc3C(F)(F)F)CC2)n1 [Example 555, 4-(3-chloro-4-fluorophenyl)-2-(3-methoxypropoxy)-6-{4-[3-(trifluoromethyl)pyridin-2-yl]piperazin-1-yl}pyrimidine]
Fc1ccc(-c2cc(N3CCN(c4ncccc4C(F)(F)F)CC3)nc(OCC3CCCO3)n2)cc1Cl (stereo not shown) [Example 556, 4-(3-chloro-4-fluorophenyl)-2-(tetrahydrofuran-2-ylmethoxy)-6-{4-[3-(trifluoromethyl)pyridin-2-yl]piperazin-1-yl}pyrimidine]
Fc1ccc(-c2cc(N3CCN(c4ncccc4C(F)(F)F)CC3)nc(OC3CCOCC3)n2)cc1Cl [Example 557, 4-(3-chloro-4-fluorophenyl)-2-(tetrahydro-2H-pyran-4-yloxy)-6-{4-[3-(trifluoromethyl)pyridin-2-yl]piperazin-1-yl}pyrimidane]
Fc1ccc(-c2cc(N3CCN(c4ncccc4C(F)(F)F)CC3)nc(OCCN3CCCC3)n2)cc1Cl [Example 558, 4-(3-chloro-4-fluorophenyl)-2-(2-pyrrolidin-1-ylethoxy)-6-{4-[3-(trifluoromethyl)pyridin-2-yf]piperazin-1-yl}pyrimidine]
